Assay results: patent publication US11673876B2, “Substituted aminobenzyl heteroaryl compounds as EGFR and/or PI3K inhibitors” (Mekanistic Therapeutics LLC, priority 2020, dated 2023)

Columns and labels:
Assay type in all cases: biochemical
PI3Ka = PI3Ka (Homo sapiens (Human), UniProt P42336); assay: Z'-LYTE / Adapta kinase assay, PI3Ka; settings: read-out: PI3Ka % Inh. @ 100 nM
Text: (§1) The Z′-LYTE® biochemical assay employs a fluorescence-based, coupled-enzyme format and is based on the differential sensitivity of phosphorylated and non-phosphorylated peptides to proteolytic cleavage (FIG. 6). The peptide substrate is labeled with two fluorophores one at each end—that make up a FRET pair. In the primary reaction, the kinase transfers the gamma-phosphate of ATP to a single tyrosine, serine or threonine residue in a synthetic FRET-peptide. In the secondary reaction, a site-specific protease recognizes and cleaves non-phosphorylated FRET-peptides. Phosphorylation of FRET-peptides suppresses cleavage by the Development Reagent. Cleavage disrupts FRET between the donor (i.e., coumarin) and acceptor (i.e., fluorescein) fluorophores on the FRET-peptide, whereas uncleaved, phosphorylated FRET-peptides maintain FRET. A ratiometric method, which calculates the ratio (the Emission Ratio) of donor emission to acceptor emission after excitation of the donor fluorophore at 400 nm, is used to quantitate reaction progress.
(§2) A significant benefit of this ratiometric method for quantitating reaction progress is the elimination of well-to-well variations in FRET-peptide concentration and signal intensities. As a result, the assay yields very high Z′-factor values (>0.7) at a low percent phosphorylation.
(§3) Both cleaved and uncleaved FRET-peptides contribute to the fluorescence signals and therefore to the Emission Ratio. The extent of phosphorylation of the FRET-peptide can be calculated from the Emission Ratio.
(§4) Enzyme: The ADAPTA universal kinase assay is a homogenous, fluorescent based immunoassay for the detection of ADP. In contrast to ATP depletion assays, the ADAPTA assay is extremely sensitive to ADP formation such that a majority of the signal change occurs in the first 10-20% conversion of ATP to ADP. This makes the ADAPTA universal kinase assay ideally suited for use with low activity kinases.
(§5) The principle of the ADAPTA universal kinase assay is outlined below. The assay itself can be divided into two phases: a kinase reaction phase, and an ADP detection phase. In the kinase reaction phase, all components required for the kinase reaction are added to the well, and the reaction is allowed to incubate for 60 minutes.
(§6) Z′-LYTE® Assay Conditions:
(§7) Test Compounds: The Test Compounds are screened in 1% DMSO (final) in the well. For 10 point titrations, 3-fold serial dilutions are conducted from the starting concentration.
(§8) Peptide/Kinase Mixtures: All Peptide/Kinase Mixtures are diluted to a 2× working concentration in the appropriate Kinase Buffer.
(§9) ATP Solution: All ATP Solutions are diluted to a 4× working concentration in Kinase Buffer (50 mM HEPES pH 7.5, 0.01% BRIJ-35, 10 mM MgCl2, 1 mM EGTA). ATP Km apparent is previously determined using a Z′-LYTE® assay.
(§10) Development Reagent Solution: The Development Reagent is diluted in Development Buffer. […]
(§11) 2.5 μL—4× Test Compound or 100 nL 100× plus 2.4 μL kinase buffer. 2. 5 μL—2× Peptide/Kinase Mixture. 3. 2.5 μL—4× ATP Solution. 4. 30-second plate shake. 5. 60-minute Kinase Reaction incubation at room temperature. 6. 5 μL—Development Reagent Solution. 7. 30-second plate shake. 8. 60-minute Development Reaction incubation at room temperature. 9.

EGFR = EGFR (Homo sapiens (Human), UniProt P00533); assay: Z'-LYTE / Adapta kinase assay, EGFR; settings: read-out: EGFR % Inh. @ 100 nM
Text: as §1, §2, §3, §4, §5, §6, §7, §8, §9, §10, §11

DNA-PK = DNA-PK (Homo sapiens (Human), UniProt P78527); assay: Z'-LYTE / Adapta kinase assay, DNA-PK; settings: read-out: DNA-PK % Inh. @ 100 nM
Text: as §1, §2, §3, §4, §5, §6, §7, §8, §9, §10, §11

Sequence of EGFR (P00533 25-1210): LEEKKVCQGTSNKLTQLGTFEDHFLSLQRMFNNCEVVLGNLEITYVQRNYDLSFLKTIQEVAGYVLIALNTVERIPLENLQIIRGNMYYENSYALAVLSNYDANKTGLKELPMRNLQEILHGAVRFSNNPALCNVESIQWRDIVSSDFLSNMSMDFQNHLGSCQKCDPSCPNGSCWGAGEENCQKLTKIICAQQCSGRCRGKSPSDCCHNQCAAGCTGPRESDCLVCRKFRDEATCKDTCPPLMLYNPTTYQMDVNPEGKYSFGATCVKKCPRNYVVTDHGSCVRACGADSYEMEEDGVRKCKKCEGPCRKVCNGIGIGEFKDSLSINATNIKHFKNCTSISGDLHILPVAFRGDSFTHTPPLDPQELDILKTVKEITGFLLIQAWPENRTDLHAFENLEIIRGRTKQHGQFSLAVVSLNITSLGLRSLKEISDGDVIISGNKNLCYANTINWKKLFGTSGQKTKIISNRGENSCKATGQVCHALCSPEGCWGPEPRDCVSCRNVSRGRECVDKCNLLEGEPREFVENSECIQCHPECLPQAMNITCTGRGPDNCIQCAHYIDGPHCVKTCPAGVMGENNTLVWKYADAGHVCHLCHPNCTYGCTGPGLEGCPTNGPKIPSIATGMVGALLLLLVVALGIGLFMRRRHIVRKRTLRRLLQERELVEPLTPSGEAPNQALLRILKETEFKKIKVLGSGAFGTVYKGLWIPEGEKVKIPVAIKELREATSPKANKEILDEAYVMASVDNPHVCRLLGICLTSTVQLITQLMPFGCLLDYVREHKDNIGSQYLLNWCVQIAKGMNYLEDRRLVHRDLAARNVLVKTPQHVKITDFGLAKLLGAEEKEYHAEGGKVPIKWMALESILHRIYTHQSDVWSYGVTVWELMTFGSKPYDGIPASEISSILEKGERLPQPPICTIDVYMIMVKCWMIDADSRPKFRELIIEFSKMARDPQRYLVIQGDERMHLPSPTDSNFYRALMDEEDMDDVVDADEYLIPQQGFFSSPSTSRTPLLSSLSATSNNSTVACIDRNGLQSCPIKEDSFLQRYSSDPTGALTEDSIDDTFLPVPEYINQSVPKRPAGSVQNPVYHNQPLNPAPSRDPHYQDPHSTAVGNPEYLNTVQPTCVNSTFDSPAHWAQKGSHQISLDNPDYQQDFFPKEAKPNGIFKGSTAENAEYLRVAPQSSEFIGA
Sequence of PI3Ka (P42336 whole entry): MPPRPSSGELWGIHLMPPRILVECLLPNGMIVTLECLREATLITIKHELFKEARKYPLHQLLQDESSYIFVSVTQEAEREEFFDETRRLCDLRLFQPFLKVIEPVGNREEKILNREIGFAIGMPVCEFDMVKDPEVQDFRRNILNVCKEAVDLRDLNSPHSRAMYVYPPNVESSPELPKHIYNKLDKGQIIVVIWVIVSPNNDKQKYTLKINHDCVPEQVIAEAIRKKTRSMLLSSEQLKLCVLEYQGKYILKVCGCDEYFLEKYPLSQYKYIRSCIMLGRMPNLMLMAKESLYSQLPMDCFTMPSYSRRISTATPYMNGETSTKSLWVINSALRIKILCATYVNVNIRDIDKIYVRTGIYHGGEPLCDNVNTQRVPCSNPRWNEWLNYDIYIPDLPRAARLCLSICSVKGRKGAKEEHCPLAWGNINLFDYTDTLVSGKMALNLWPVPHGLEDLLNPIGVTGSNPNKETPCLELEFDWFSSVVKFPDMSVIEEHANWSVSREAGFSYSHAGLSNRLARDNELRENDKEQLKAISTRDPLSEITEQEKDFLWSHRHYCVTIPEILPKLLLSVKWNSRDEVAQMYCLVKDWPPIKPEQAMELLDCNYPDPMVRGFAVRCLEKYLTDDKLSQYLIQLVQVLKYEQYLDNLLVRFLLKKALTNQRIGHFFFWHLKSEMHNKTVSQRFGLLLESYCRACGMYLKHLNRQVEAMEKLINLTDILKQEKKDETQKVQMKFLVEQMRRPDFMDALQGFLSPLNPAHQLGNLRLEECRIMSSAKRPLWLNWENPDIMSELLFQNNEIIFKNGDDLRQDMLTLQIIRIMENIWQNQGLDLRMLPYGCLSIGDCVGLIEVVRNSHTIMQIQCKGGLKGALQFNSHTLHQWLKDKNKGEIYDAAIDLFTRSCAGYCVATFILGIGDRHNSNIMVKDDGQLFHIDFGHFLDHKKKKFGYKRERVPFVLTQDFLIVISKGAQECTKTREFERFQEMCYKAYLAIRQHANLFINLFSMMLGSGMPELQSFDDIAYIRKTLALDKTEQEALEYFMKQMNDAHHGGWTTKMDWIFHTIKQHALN
Sequence of PI3Ka (P27986 whole entry partner): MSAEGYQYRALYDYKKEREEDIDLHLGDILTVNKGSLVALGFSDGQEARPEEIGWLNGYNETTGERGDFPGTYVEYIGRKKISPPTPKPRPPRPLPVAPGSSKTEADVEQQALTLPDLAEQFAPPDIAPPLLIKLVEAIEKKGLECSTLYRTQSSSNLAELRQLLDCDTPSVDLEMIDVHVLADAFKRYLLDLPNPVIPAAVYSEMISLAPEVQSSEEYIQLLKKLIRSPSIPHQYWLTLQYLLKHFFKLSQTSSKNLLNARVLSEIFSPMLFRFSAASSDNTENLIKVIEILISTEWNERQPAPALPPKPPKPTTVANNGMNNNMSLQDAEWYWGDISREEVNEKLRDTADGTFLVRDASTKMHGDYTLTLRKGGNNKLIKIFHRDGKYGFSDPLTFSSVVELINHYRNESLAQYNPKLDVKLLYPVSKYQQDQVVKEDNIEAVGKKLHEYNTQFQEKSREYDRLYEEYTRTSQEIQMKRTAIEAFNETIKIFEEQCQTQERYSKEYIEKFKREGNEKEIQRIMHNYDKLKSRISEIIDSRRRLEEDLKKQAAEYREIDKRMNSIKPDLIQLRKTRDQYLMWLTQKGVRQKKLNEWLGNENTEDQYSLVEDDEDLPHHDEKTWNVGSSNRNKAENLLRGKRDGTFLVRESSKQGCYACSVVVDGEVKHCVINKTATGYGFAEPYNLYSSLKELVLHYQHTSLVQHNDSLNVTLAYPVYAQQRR

Structure (SMILES): CC(Nc1ncnc2ccc(-c3cnc4cnn(C)c4c3)cc12)c1ccccc1 (centres unmarked) [Compound 27, 6-(1-methylpyrazolo[4,3-b]pyridin-6-yl)-N-(1-phenylethyl)quinazolin-4-amine]
- inhibition at 0.1 µM (PI3Ka): < 10%
- inhibition at 0.1 µM (EGFR): 10 to 80%
- inhibition at 0.1 µM (DNA-PK): 10 to 80%

Structure (SMILES): CC(Nc1c(C#N)cnc2ccc(-c3cnc4cnn(C)c4c3)cc12)c1ccccc1 (centres unmarked) [Compound 73, 6-(1-methylpyrazolo [4,3-b]pyridin-6-yl)-4-(1-phenylethylamino) quinoline-3-carbonitrile]
- inhibition at 0.1 µM (PI3Ka): 10 to 80%
- inhibition at 0.1 µM (EGFR): 10 to 80%
- inhibition at 0.1 µM (DNA-PK): < 10%

Structure (SMILES): C[C@@H](Nc1ncnc2ccc(-c3cncc(C(=O)N(C)O)c3)cc12)c1ccccc1 [Compound 134, (R)-N-hydroxy-N-methyl-5-(4-((1-phenylethyl)amino)quinazolin-6-yl)nicotinamide]
- inhibition at 0.1 µM (PI3Ka): < 10%
- inhibition at 0.1 µM (EGFR): > 90%
- inhibition at 0.1 µM (DNA-PK): < 10%

Structure (SMILES): COc1ncc(-c2ccc3ncc(C#N)c(NC(C)c4ccccc4)c3c2)cc1C#N (centres unmarked) [Compound 126, 6-(5-cyano-6-methoxy-3-pyridyl)-4-(1-phenylethylamino) quinoline-3-carbonitrile]
- inhibition at 0.1 µM (PI3Ka): 10 to 80%
- inhibition at 0.1 µM (EGFR): 10 to 80%
- inhibition at 0.1 µM (DNA-PK): < 10%

Structure (SMILES): COC(=O)c1cncc(-c2ccc3ncnc(N[C@H](C)c4ccccc4)c3c2)c1 [Compound 135, methyl 5-[4-[[(1R)-1-phenylethyl]amino]quinazolin-6-yl]pyridine-3-carboxylate]
- inhibition at 0.1 µM (PI3Ka): < 10%
- inhibition at 0.1 µM (EGFR): > 90%
- inhibition at 0.1 µM (DNA-PK): < 10%

Structure (SMILES): CC(Nc1c(C#N)cnc2ccc(-c3cnc4ccccc4c3)cc12)c1ccccc1 (centres unmarked) [Compound 122, 4-(1-phenylethylamino)-6-(3-quinolyl)quinoline-3-carbonitrile]
- inhibition at 0.1 µM (PI3Ka): < 10%
- inhibition at 0.1 µM (EGFR): 10 to 80%
- inhibition at 0.1 µM (DNA-PK): < 10%

Structure (SMILES): CC(Nc1c(C#N)cnc2ccc(-c3cncc(O)c3)cc12)c1ccccc1 (centres unmarked) [Compound 61, 6-(5-hydroxy-3-pyridyl)-4-(1-phenylethylamino) quinoline-3-carbonitrile]
- inhibition at 0.1 µM (PI3Ka): < 10%
- inhibition at 0.1 µM (EGFR): 80 to 90%
- inhibition at 0.1 µM (DNA-PK): 10 to 80%

Structure (SMILES): Cc1nc2cc(-c3ccc4ncnc(NC(C)c5ccccc5)c4c3)cnc2[nH]1 (centres unmarked) [Compound 10, 6-(2-methyl-1H-imidazo[4,5-b]pyridin-6-yl)-N-(1-phenylethyl)quinazolin-4-amine]
- inhibition at 0.1 µM (PI3Ka): 10 to 80%
- inhibition at 0.1 µM (EGFR): 80 to 90%
- inhibition at 0.1 µM (DNA-PK): 10 to 80%

Structure (SMILES): CC(Nc1c(C#N)cnc2ccc(-c3cnc4[nH]ccc4c3)cc12)c1ccccc1 (centres unmarked) [Compound 55, 4-(1-phenylethylamino)-6-(1H-pyrrolo [2,3-b]pyridin-5-yl) quinoline-3-carbonitrile]
- inhibition at 0.1 µM (PI3Ka): < 10%
- inhibition at 0.1 µM (EGFR): 10 to 80%
- inhibition at 0.1 µM (DNA-PK): 10 to 80%

Structure (SMILES): CC(Nc1c(C#N)cnc2ccc(-c3cccc(-c4n[nH]c(=O)o4)c3)cc12)c1ccccc1 (centres unmarked) [Compound 127, 6-[3-(2-oxo-3H-1,3,4-oxadiazol-5-yl)phenyl]-4-(1-phenylethylamino) quinoline-3-carbonitrile]
- inhibition at 0.1 µM (PI3Ka): < 10%
- inhibition at 0.1 µM (EGFR): 80 to 90%
- inhibition at 0.1 µM (DNA-PK): 10 to 80%

Structure (SMILES): CC(Nc1ncnc2ccc(-c3cnc4cncn4c3)cc12)c1ccccc1 (centres unmarked) [Compound 34, 6-(imidazo[1,5-a]pyrimidin-3-yl)-N-(1-phenylethyl)quinazolin-4-amine]
- inhibition at 0.1 µM (PI3Ka): > 90%
- inhibition at 0.1 µM (EGFR): > 90%
- inhibition at 0.1 µM (DNA-PK): 80 to 90%

Structure (SMILES): C[C@@H](Nc1ncnc2ccc(-c3cccc(-c4nnc[nH]4)c3)cc12)c1ccccc1 [Compound 137, N-[(1R)-1-phenylethyl]-6-[3-(4H-1,2,4-triazol-3-yl)phenyl]quinazolin-4-amine]
- inhibition at 0.1 µM (PI3Ka): 10 to 80%
- inhibition at 0.1 µM (EGFR): > 90%
- inhibition at 0.1 µM (DNA-PK): < 10%

Structure (SMILES): CC(Nc1ncnc2ccc(-c3cnc(N)c(C(=O)N(C)C)c3)cc12)c1ccccc1 (centres unmarked) [Compound 36, 2-amino-N, N-dimethyl-5-[4-(1-phenylethylamino)quinazolin-6-yl] pyridine-3-carboxamide]
- inhibition at 0.1 µM (PI3Ka): 10 to 80%
- inhibition at 0.1 µM (EGFR): 10 to 80%
- inhibition at 0.1 µM (DNA-PK): 10 to 80%

Structure (SMILES): CC(Nc1c(C#N)cnc2ccc(-c3n[nH]c4cnccc34)cc12)c1ccccc1 (centres unmarked) [Compound 125, 4-(1-phenylethylamino)-6-(1H-pyrazolo [3,4-c]pyridin-3-yl)quinoline-3-carbonitrile]
- inhibition at 0.1 µM (PI3Ka): < 10%
- inhibition at 0.1 µM (EGFR): > 90%
- inhibition at 0.1 µM (DNA-PK): 10 to 80%

Structure (SMILES): COc1cc(-c2ccc3ncc(C#N)c(NC(C)c4ccccc4)c3c2)cnc1OC (centres unmarked) [Compound 68, 6-(5,6-dimethoxy-3-pyridyl)-4-(1-phenylethylamino)quinoline-3-carbonitrile]
- inhibition at 0.1 µM (PI3Ka): 10 to 80%
- inhibition at 0.1 µM (EGFR): 80 to 90%
- inhibition at 0.1 µM (DNA-PK): 10 to 80%

Structure (SMILES): C[C@@H](Nc1ncnc2ccc(-c3cncc(-c4nnc[nH]4)c3)cc12)c1ccccc1 [Compound 138, (R)-6-(5-(4H-1,2,4-triazol-3-yl)pyridin-3-yl)-N-(1-phenylethyl)quinazolin-4-amine]
- inhibition at 0.1 µM (PI3Ka): < 10%
- inhibition at 0.1 µM (EGFR): > 90%
- inhibition at 0.1 µM (DNA-PK): 10 to 80%

Structure (SMILES): CC(Nc1c(C#N)cnc2ccc(-c3cccc(-c4nnc[nH]4)c3)cc12)c1ccccc1 (centres unmarked) [Compound 128, 4-(1-phenylethylamino)-6-[3-(4H-1,2,4-triazol-3-yl)phenyl]quinoline-3-carbonitrile]
- inhibition at 0.1 µM (PI3Ka): < 10%
- inhibition at 0.1 µM (EGFR): 80 to 90%
- inhibition at 0.1 µM (DNA-PK): < 10%

Structure (SMILES): CC(Nc1c(C#N)cnc2ccc(-c3cnc(N)c(C#N)c3)cc12)c1ccccc1 (centres unmarked) [Compound 65, 6-(6-amino-5-cyano-3-pyridyl)-4-(1-phenylethylamino) quinoline-3-carbonitrile]
- inhibition at 0.1 µM (PI3Ka): 10 to 80%
- inhibition at 0.1 µM (EGFR): 80 to 90%
- inhibition at 0.1 µM (DNA-PK): 10 to 80%

Structure (SMILES): CS(=O)(=O)Nc1cc(-c2ccc3ncc(C#N)c(NC4c5ccccc5CC4O)c3c2)cnc1Cl (centres unmarked) [Compound 103, N-[2-chloro-5-[3-cyano-4-[(2-hydroxyindan-1-yl)amino]-6-quinolyl]-3-pyridyl]methanesulfonamide]
- inhibition at 0.1 µM (EGFR): < 10%
- inhibition at 0.1 µM (DNA-PK): > 90%

Structure (SMILES): CC(Nc1c(C#N)cnc2ccc(-c3n[nH]c4ccncc34)cc12)c1ccccc1 (centres unmarked) [Compound 124, 4-(1-phenylethylamino)-6-(1H-pyrazolo [4,3-c]pyridin-3-yl) quinoline-3-carbonitrile]
- inhibition at 0.1 µM (PI3Ka): < 10%
- inhibition at 0.1 µM (EGFR): > 90%
- inhibition at 0.1 µM (DNA-PK): < 10%

Structure (SMILES): CC(Nc1ncnc2ccc(-c3cnc(N)c(S(C)(=O)=O)c3)cc12)c1ccccc1 (centres unmarked) [Compound 31, 6-(6-amino-5-(methylsulfonyl)pyridin-3-yl)-N-(1-phenylethyl)quinazolin-4-amine]
- inhibition at 0.1 µM (PI3Ka): 80 to 90%
- inhibition at 0.1 µM (EGFR): > 90%
- inhibition at 0.1 µM (DNA-PK): > 90%

Structure (SMILES): CC(Nc1c(C#N)cnc2ccc(-c3cnc(N)c(C(F)(F)F)c3)cc12)c1ccccc1 (centres unmarked) [Compound 62, 6-(6-amino-5-(trifluoromethyl)pyridin-3-yl)-4-((1-phenylethyl)amino)quinoline-3-carbonitrile]
- inhibition at 0.1 µM (PI3Ka): < 10%
- inhibition at 0.1 µM (EGFR): 10 to 80%
- inhibition at 0.1 µM (DNA-PK): 10 to 80%

Structure (SMILES): CC(Nc1c(C#N)cnc2ccc(-c3cnc4[nH]nnc4c3)cc12)c1ccccc1 (centres unmarked) [Compound 70, 4-(1-phenylethylamino)-6-(3H-triazolo [4,5-b]pyridin-6-yl) quinoline-3-carbonitrile]
- inhibition at 0.1 µM (PI3Ka): 10 to 80%
- inhibition at 0.1 µM (EGFR): 80 to 90%
- inhibition at 0.1 µM (DNA-PK): 10 to 80%

Structure (SMILES): CC(Nc1c(C#N)cnc2ccc(-c3cncc(C#N)c3)cc12)c1ccccc1 (centres unmarked) [Compound 64, 6-(5-cyano-3-pyridyl)-4-(1-phenylethylamino) quinoline-3-carbonitrile]
- inhibition at 0.1 µM (PI3Ka): 10 to 80%
- inhibition at 0.1 µM (EGFR): 10 to 80%
- inhibition at 0.1 µM (DNA-PK): 10 to 80%

Structure (SMILES): C[C@@H](Nc1ncnc2ccc(-c3cncc(C(=O)NC#N)c3)cc12)c1ccccc1 [Compound 133, (R)-N-cyano-5-(4-((1-phenylethyl)amino)quinazolin-6-yl)nicotinamide]
- inhibition at 0.1 µM (PI3Ka): < 10%
- inhibition at 0.1 µM (EGFR): < 10%
- inhibition at 0.1 µM (DNA-PK): < 10%
